Data on 30 molecules can be found in patent publication US20250325552A1, “SUBSTITUTED THIADIAZOLYL DERIVATIVES AS DNA POLYMERASE THETA INHIBITORS” (IDEAYA Biosciences, Inc., priority 2020, published 2025).

The structures appear in SMILES notation.

Sequence of Polθ theta (1-899) (hPolQ) (O75417 1-899): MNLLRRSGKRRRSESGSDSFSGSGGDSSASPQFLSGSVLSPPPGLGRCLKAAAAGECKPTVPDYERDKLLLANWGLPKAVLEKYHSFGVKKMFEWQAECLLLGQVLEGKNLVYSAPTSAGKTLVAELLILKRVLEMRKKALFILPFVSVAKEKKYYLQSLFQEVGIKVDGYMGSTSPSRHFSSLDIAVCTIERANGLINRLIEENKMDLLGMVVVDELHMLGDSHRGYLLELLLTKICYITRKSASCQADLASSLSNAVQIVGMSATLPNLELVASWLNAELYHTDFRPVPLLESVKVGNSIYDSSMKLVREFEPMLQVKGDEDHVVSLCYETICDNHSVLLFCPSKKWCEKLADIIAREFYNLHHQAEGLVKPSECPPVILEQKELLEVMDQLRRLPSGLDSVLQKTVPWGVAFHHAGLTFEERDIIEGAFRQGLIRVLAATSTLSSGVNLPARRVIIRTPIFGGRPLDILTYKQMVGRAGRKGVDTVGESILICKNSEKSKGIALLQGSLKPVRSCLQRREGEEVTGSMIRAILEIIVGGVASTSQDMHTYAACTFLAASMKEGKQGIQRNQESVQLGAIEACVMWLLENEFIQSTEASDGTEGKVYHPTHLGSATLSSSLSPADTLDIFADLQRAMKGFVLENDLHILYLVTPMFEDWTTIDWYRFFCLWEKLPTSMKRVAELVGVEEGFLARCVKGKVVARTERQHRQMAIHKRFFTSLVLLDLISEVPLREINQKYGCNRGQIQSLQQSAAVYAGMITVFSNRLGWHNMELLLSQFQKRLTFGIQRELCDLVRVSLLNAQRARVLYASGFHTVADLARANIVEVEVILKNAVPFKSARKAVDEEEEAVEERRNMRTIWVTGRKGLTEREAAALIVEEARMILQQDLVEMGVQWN

The assay addresses Polθ theta (1-899) (hPolQ) (Homo sapiens (Human), UniProt O75417). Nature of the assay: Biological Assay 1: Polθ ATPase activity, NADH oxidation-coupled enzymatic assay (10 nM enzyme, 30 min). Format: biochemical. The note with it: Polθ (1-899) 10 nM, 100 μM ATP, 300 nM dT50 ssDNA; Examples 1 to 268; read-out: ATPase NADH coupling:Standard Screening:hPolQ IC50. In outline:
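Polθ (1-899) at 10 nM was preincubated with compound for 15 min at room temperature in 20 mM Tris pH 7.80, 80 mM KCl, 10 mM MgCl2. An equal volume of 100 μM ATP, 300 nM dT50 ssDNA and a PK/LDH–NADH coupling system was then added. A340 was read each minute for 30 min. IC50 came from rate slopes over 10-point series with a four-parameter fit.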
For `COc1cc(CO)ccc1-c1cc(C)ncc1C(=O)Nc1nnc(OCc2ccc(Cl)cn2)s1` [Example 31, N-(5-((5-chloropyridin-2-yl)methoxy)-1,3,4-thiadiazol-2-yl)-4-(4-(hydroxymethyl)-2-methoxyphenyl)-6-methylnicotinamide], the IC50 – broadly, the concentration needed to halve the response being measured – was 200 to 500 nM.

As to `COc1cnc(C)cc1-c1cc(C)ncc1C(=O)Nc1nnc(OCC2CC3(CC(O)C3)C2)s1` (stereo not drawn) [Example 139, N-(5-((6-hydroxyspiro[3.3]heptan-2-yl)methoxy)-1,3,4-thiadiazol-2-yl)-5′-methoxy-2′,6-dimethyl-[4,4′-bipyridine]-3-carboxamide], the IC50 was not above 200 nM.

With `COc1cnc(Cl)cc1-c1cc(C)ncc1C(=O)Nc1nnc(OCC2CS(=O)(=O)C2)s1` [Example 166, 2′-chloro-N-(5-((1,1-dioxidothietan-3-yl)methoxy)-1,3,4-thiadiazol-2-yl)-5′-methoxy-6-methyl-(4,4′-bipyridine)-3-carboxamide], the IC50 is not above 200 nM.

In the case of `COc1ccc(Cl)cc1-c1cc(C)ncc1C(=O)Nc1nnc(OCc2ccc(CO)cn2)s1` [Example 39, 4-(5-chloro-2-methoxyphenyl)-N-(5-((5-(hydroxymethyl)pyridin-2-yl)methoxy)-1,3,4-thiadiazol-2-yl)-6-methylpyridine-3-carboxamide], the half-maximal inhibitory concentration (IC50) is not above 200 nM.

As to `COc1cnc(Cl)cc1-c1cc(C)ncc1C(=O)Nc1nnc(OCC2CC3(COC3)C2)s1` [Example 172, N-(5-((2-oxaspiro(3.3)heptan-6-yl)methoxy)-1,3,4-thiadiazol-2-yl)-2′-chloro-5′-methoxy-6-methyl-(4,4′-bipyridine)-3-carboxamide], the IC50 was not above 200 nM.

On to `COc1cnc(Cl)c(F)c1-c1cc(C)ncc1C(=O)Nc1nnc(OCC2CCOC2)s1` (stereo in doubt) [Example 183, 2′-chloro-3′-fluoro-5′-methoxy-6-methyl-N-(5-(((R)-tetrahydrofuran-3-yl)methoxy)-1,3,4-thiadiazol-2-yl)-(4,4′-bipyridine)-3-carboxamide], for which the IC50 was not above 200 nM.

Take `COc1cnc(Cl)cc1-c1cc(C)ncc1C(=O)Nc1nnc(OC[C@@H]2COCCO2)s1` [Example 186, (S)—N-(5-((1,4-dioxan-2-yl)methoxy)-1,3,4-thiadiazol-2-yl)-2′-chloro-5′-methoxy-6-methyl-(4,4′-bipyridine)-3-carboxamide]: the IC50 is not above 200 nM.

`Cc1cc(-c2cc(Cl)ncc2OC(F)F)c(C(=O)Nc2nnc(OC[C@@H]3COCCO3)s2)cn1` [Example 233, (S)—N-(5-((1,4-dioxan-2-yl)methoxy)-1,3,4-thiadiazol-2-yl)-2′-chloro-5′-(difluoromethoxy)-6-methyl-(4,4′-bipyridine)-3-carboxamide]: the IC50 is not above 200 nM.

Regarding `COc1ccccc1-c1cnccc1C(=O)Nc1nnc(OCC2CCOCC2)s1` [compound 1, 3-(2-methoxyphenyl)-N-(5-((tetrahydro-2H-pyran-4-yl)methoxy)-1,3,4-thiadiazol-2-yl)isonicotinamide], the IC50 lay in the range of 200 to 500 nM.

On to `COc1ccc(Cl)cc1-c1cc(C)ncc1C(=O)Nc1nnc(OCc2cnc(CO)cn2)s1` [Example 133, 4-(5-chloro-2-methoxyphenyl)-N-(5-((5-(hydroxymethyl)pyrazin-2-yl)methoxy)-1,3,4-thiadiazol-2-yl)-6-methylpyridine-3-carboxamide], for which the IC50 was not above 200 nM.

With `COc1cnc(Cl)cc1-c1cc(C)ncc1C(=O)Nc1nnc(OC[C@@H]2CCO[C@H]2C)s1` (single isomer, unassigned) [Example 180], the concentration for half-maximal inhibition (IC50) is not above 200 nM.

As to `COc1cnc(C)cc1-c1cc(C)ncc1C(=O)Nc1nnc(OC[C@H]2C[C@@H](O)C2)s1` [Example 118, N-(5-(((1s,3s)-3-hydroxycyclobutyl)methoxy)-1,3,4-thiadiazol-2-yl)-5′-methoxy-2′,6-dimethyl-[4,4′-bipyridine]-3-carboxamide], the IC50 was not above 200 nM.

`CN=[S@](C)(=O)c1ccc(COc2nnc(NC(=O)c3cnc(C)cc3-c3cc(Cl)ccc3OC)s2)nc1` [Example 144, (R)-4-(5-chloro-2-methoxyphenyl)-N-(5-((5-(N,S-dimethylsulfonimidoyl)pyridin-2-yl)methoxy)-1,3,4-thiadiazol-2-yl)-6-methylnicotinamide]: the IC50 was not above 200 nM.

As for `COc1ccc(Cl)cc1-c1cnncc1C(=O)Nc1nnc(OCC23CCC(O)(CC2)CC3)s1` [Example 121, 5-(5-chloro-2-methoxyphenyl)-N-(5-((4-hydroxybicyclo(2.2.2)octan-1-yl)methoxy)-1,3,4-thiadiazol-2-yl)pyridazine-4-carboxamide], the half-inhibitory concentration (IC50) was in the range of 200 to 500 nM.

For `COc1cnc(C)c(F)c1-c1cc(C)ncc1C(=O)Nc1nnc(OC[C@@H]2CCOC2)s1` [Example 250, 3′-fluoro-5′-methoxy-2′,6-dimethyl-N-(5-(((R)-tetrahydrofuran-3-yl)methoxy)-1,3,4-thiadiazol-2-yl)-(4,4′-bipyridine)-3-carboxamide], the IC50 is not above 200 nM.

As for `COc1cnc(Cl)cc1-c1cc(C)ncc1C(=O)Nc1nnc(OCC23CC(O)(C2)C3)s1` [Example 99, 2′-chloro-N-(5-((3-hydroxybicyclo(1.1.1)pentan-1-yl)methoxy)-1,3,4-thiadiazol-2-yl)-5′-methoxy-6-methyl-(4,4′-bipyridine)-3-carboxamide], the IC50 is not above 200 nM.

Regarding `COc1cccc(F)c1-c1cc(C)ncc1C(=O)Nc1nnc(OCc2cnc(C(C)(C)O)cn2)s1` [Example 119, 4-(2-fluoro-6-methoxyphenyl)-N-(5-((5-(2-hydroxypropan-2-yl)pyrazin-2-yl)methoxy)-1,3,4-thiadiazol-2-yl)-6-methylnicotinamide], the 50% inhibitory concentration (IC50) fell in the range of 200 to 500 nM.

Regarding `COc1cccc(F)c1-c1cc(C)ncc1C(=O)Nc1nnc(OCc2ccc3c(n2)CCCC3O)s1` (racemic) [Example 92, 4-(2-fluoro-6-methoxyphenyl)-N-(5-((5-hydroxy-5,6,7,8-tetrahydroquinolin-2-yl)methoxy)-1,3,4-thiadiazol-2-yl)-6-methylnicotinamide], the IC50 was not above 200 nM.

`Cc1cc(-c2c(F)cccc2OC(F)F)c(C(=O)Nc2nnc(OCc3cnc(CO)cn3)s2)cn1` [Example 70, 4-(2-(difluoromethoxy)-6-fluorophenyl)-N-(5-((5-(hydroxymethyl)pyrazin-2-yl)methoxy)-1,3,4-thiadiazol-2-yl)-6-methylnicotinamide]: the IC50 was not above 200 nM.

Regarding `COc1cccc(F)c1-c1cc(C)ncc1C(=O)Nc1nnc(OCC2CCS(=O)(=O)CC2)s1` [Example 158, N-(5-((1,1-dioxidotetrahydro-2H-thiopyran-4-yl)methoxy)-1,3,4-thiadiazol-2-yl)-4-(2-fluoro-6-methoxyphenyl)-6-methylnicotinamide], the IC50 is not above 200 nM.

On to `COc1cnc(Cl)cc1-c1cc(C)ncc1C(=O)Nc1nnc(OC[C@@H]2C[C@@H]2F)s1` [Example 202, 2′-chloro-N-(5-(((1S,2S)-2-fluorocyclopropyl)methoxy)-1,3,4-thiadiazol-2-yl)-5′-methoxy-6-methyl-(4,4′-bipyridine)-3-carboxamide], for which the IC50 was not above 200 nM.

`Cc1cc(-c2cc(Cl)ncc2OC(F)F)c(C(=O)Nc2nnc(OC[C@H]3CCOC3)s2)cn1` (single isomer, unassigned) [Example 257]: the concentration for half-maximal inhibition (IC50) is not above 200 nM.

Regarding `COc1cnc(Cl)cc1-c1cc(C)ncc1C(=O)Nc1nnc(OC[C@H]2C[C@H](O)C2)s1` [Example 108, 2′-chloro-N-(5-(((1r,3r)-3-hydroxycyclobutyl)methoxy)-1,3,4-thiadiazol-2-yl)-5′-methoxy-6-methyl-[4,4′-bipyridine]-3-carboxamide], the IC50 was not above 200 nM.

For the molecule `COc1cccc(F)c1-c1cnncc1C(=O)Nc1nnc(OCc2ccc(Cl)cn2)s1` [Example 64, N-(5-((5-chloropyridin-2-yl)methoxy)-1,3,4-thiadiazol-2-yl)-5-(2-fluoro-6-methoxyphenyl)pyridazine-4-carboxamide], the IC50 was not above 200 nM.

Turning to `Cc1cc(-c2c(F)cccc2OC(F)F)c(C(=O)Nc2nnc(OCc3ccc([C@@H](C)O)cn3)s2)cn1` [Example 57, 4-(2-(difluoromethoxy)-6-fluorophenyl)-N-(5-((5-((R)-1-hydroxyethyl)pyridin-2-yl)methoxy)-1,3,4-thiadiazol-2-yl)-6-methylnicotinamide], the IC50 was not above 200 nM.

Regarding `COc1cnc(Cl)cc1-c1cc(C)ncc1C(=O)Nc1nnc(OCc2ccc(OC(F)F)cn2)s1` [Example 113, 2′-chloro-N-(5-((5-(difluoromethoxy)pyridin-2-yl)methoxy)-1,3,4-thiadiazol-2-yl)-5′-methoxy-6-methyl-(4,4′-bipyridine)-3-carboxamide], the IC50 was not above 200 nM.

Turning to `COc1ccc(Cl)cc1-c1cc(C)ncc1C(=O)Nc1nnc(OCc2ccc([S@](C)(=N)=O)cn2)s1` [Example 147, (R)-4-(5-chloro-2-methoxyphenyl)-6-methyl-N-(5-((5-(S-methylsulfonimidoyl)pyridin-2-yl)methoxy)-1,3,4-thiadiazol-2-yl)nicotinamide], the IC50 was not above 200 nM.

Regarding `Cc1cc(-c2c(F)cccc2OC(F)F)c(C(=O)Nc2nnc(OCc3ccc(C(C)(C)O)cn3)s2)cn1` [Example 50, 4-(2-(difluoromethoxy)-6-fluorophenyl)-N-(5-((5-(2-hydroxypropan-2-yl)pyridin-2-yl)methoxy)-1,3,4-thiadiazol-2-yl)-6-methylnicotinamide], the IC50 was not above 200 nM.

Turning to `COc1cnc(Cl)cc1-c1cc(C)ncc1C(=O)Nc1nnc(OC[C@@]2(F)CCOC2)s1` (single isomer, unassigned) [Example 263], the IC50 is not above 200 nM.

In the case of `COc1ccccc1-c1cc(C)ncc1C(=O)Nc1nnc(O[C@H](C)c2ccc(Cl)cn2)s1` [Example 12, (R)—N-(5-(1-(5-chloropyridin-2-yl)ethoxy)-1,3,4-thiadiazol-2-yl)-4-(2-methoxyphenyl)-6-methylnicotinamide], the IC50 was in the range of 1000 to 10000 nM.
